Like-named read-outs stand apart in the source and are kept apart here.
Tested on: α7 integrin (LacZ reporter in α7LacZ+/− myoblasts)
Experiment: qHTS of the LOPAC library and MLSMR (online screen, α7LacZ+/− myoblasts)
Settings: for activation at 0.307 µM / activation at 1.53 µM / activation at 7.66 µM / activation at 38.3 µM / Emax / EC50: Mus musculus, Myoblast; for activation at 0.307 µM: read-out: Activity at 0.307 uM [%] **; for activation at 1.53 µM: read-out: Activity at 1.530 uM [%] **; for activation at 7.66 µM: read-out: Activity at 7.660 uM [%] **; for activation at 38.3 µM: read-out: Activity at 38.30uM [%] **; for EC50: read-out: Fit LogAC50 (converted)
[1] = 48 h, read-out: Fit Infinite Activity [%]

Method: A total of 250 α7LacZ^+/− myoblasts at passage 13 were dispensed using a multidrop (Thermo) into black low base tissue culture treated microclear aurora plates in 6 μl media containing DMEM without phenol, 5% FBS, 1× GluMax and 1× Penicillin/Streptomycin. […] Compounds were then dispensed using a Kalypsys pintool to deliver 23 nl/well compounds in DMSO (diluted into 6 μl resulting in a 1:260 dilution of compound). […] After incubation with compound, 5 μl of the media was aspirated using the Kalypsys washer/dispenser and 3 μl of the Mammalian Protein Extraction Reagent (MPER) lysis buffer (Thermo Fisher) was added. […] The plates were then incubated for 10 minutes at room temperature.
The assay was adapted for a high-throughput screen with the fully automated Kalypsys robotic system using 1536 well plates at NCGC.

Compound	activation at 0.307 µM (48 h)	activation at 1.53 µM (48 h)	activation at 7.66 µM (48 h)	activation at 38.3 µM (48 h)	Emax [1]	EC50	Emax (read-out: Max Response [%])	Score
CCOc1ccc(NC(=O)CN2C(=O)NC(CCSC)C2=O)cc1 (stereo not shown) [Compound 180]	0%	-2.4%	21.3%	75.1%	76.1%	10 µM	75.1%	–
COc1ccc(C(=O)CN2CCCCC2)cc1 [Compound 181]	12.4%	12.9%	18.9%	92.8%	93%	–	92.8%	–
CNP(=O)(Oc1ccccc1)OC12CC3CC(CC(C3)C1)C2 (stereo not shown) [Compound 182]	0%	0%	34.7%	93.6%	98.2%	10 µM	93.6%	–
O=C(CCc1ccccc1)c1nnc(-c2ccccc2)o1 [Compound 183]	0%	2.03%	24.4%	99.5%	99.7%	10 µM	99.5%	–
COc1ccc(CNC(=O)COC(=O)CCc2c[nH]c3ccccc23)cc1 [Compound 184]	0%	-0.551%	26%	83.9%	85.5%	10 µM	83.9%	–
COc1ccccc1OCC(=O)N/N=C1/C=C(C)CC1 [Compound 185]	-21.6%	-24%	0%	94.5%	94.2%	10 µM	94.5%	–
CC(C(=O)Nc1ccc(C#N)cc1)N(C)CC(=O)Nc1cccc(F)c1 (stereo not shown) [Compound 186]	-37.2%	-17.7%	15.1%	37.2%	48%	–	37.2%	–
COC(=O)C1SCC2C(=O)N(Cc3ccc(F)cc3)CC(=O)N21 (stereo not shown) [Compound 187]	-53.6%	-42.4%	-1.79%	51.5%	65.7%	–	51.5%	–
COc1ccc(-c2cc(COc3ccccc3)on2)cc1 [Compound 188]	0%	0.795%	20%	88.1%	88.2%	10 µM	88.1%	–
Sc1nnc(Cn2cnc3ccccc32)n1-c1ccccc1 [Compound 189]	13.1%	23.7%	44%	66.7%	84.6%	–	66.7%	–
CN(C#N)c1nccc(-c2cccs2)n1 [Compound 190]	-30.5%	-25.3%	6.31%	79.6%	87.5%	–	79.6%	–
O=Cc1cnc(N2CCCCC2)s1 [Compound 191]	-18.1%	-20%	-4.2%	96%	96.3%	–	96%	–
Nc1nccc(-c2ccc(-n3cnc4ccccc43)cc2)n1 [Compound 192]	0.89%	2.96%	15.9%	76.1%	76.5%	–	76.1%	–
COc1cc2c(cc1OC)C(NC(=O)C(F)(F)F)C/C2=N\O (stereo not shown) [Compound 193]	3.74%	2%	17.9%	91.5%	92.3%	–	91.5%	–
COc1ccc(N2CCN(CCC3Oc4cc([N+](=O)[O-])ccc4NC3=O)CC2)cc1 (stereo not shown) [Compound 194]	-2.43%	0%	30.6%	68%	73.9%	8.91 µM	68%	42
N#Cc1ccc(OCC(O)CS(=O)(=O)c2ccccc2)cc1 (stereo not shown) [Compound 195]	-7.88%	-12%	15.3%	89.4%	89.6%	10 µM	89.4%	–
Cc1ccccc1C(=O)Nc1nnc(SC(C)C)s1 [Compound 196]	0%	0%	20.6%	65.1%	66.6%	10 µM	65.1%	–
CC(=O)c1cccc(NC(=O)C(=O)Nc2cccc3ccccc23)c1 [Compound 197]	5.25%	15.7%	40.8%	66.9%	84.7%	–	66.9%	–

Compound	activation at 0.307 µM (48 h)	activation at 1.53 µM (48 h)	activation at 7.66 µM (48 h)	activation at 38.3 µM (48 h)	Emax [1]	EC50	Emax (read-out: Max Response [%])	Score
Cc1cc(C)nc(NC(=O)c2ccc(Cl)cc2Cl)n1 [Compound 198]	2.39%	0%	17.6%	79.1%	79.2%	10 µM	79.1%	–
CC(C)N(CCO)C(=O)CCc1nnc(CCCc2ccccc2)o1 [Compound 199]	0%	7.61%	32.2%	78.1%	96.2%	–	78.1%	–
c1ccc(CN2CCCC3(CCCN(Cc4nc(CC5CC5)no4)C3)C2)cc1 (stereo not shown) [Compound 200]	-40.9%	-35.8%	1.57%	46.2%	56.6%	–	46.2%	–
Cn1c(=O)c2c(nc(Sc3ncnn3CC(=O)NC3CCCCC3)n2C)n(C)c1=O [Compound 201]	-21.5%	-17.1%	8.09%	69.8%	74.9%	–	69.8%	–
NS(=O)(=O)c1ccc(NC(=O)Nc2ccc(Cl)cc2)cc1 [Compound 202]	–	–	–	–	–	–	–	42
CC1=C(C#N)C(=O)N(C)C(=O)/C1=C\NNc1ccc(F)cc1 [Compound 203]	-46%	-36.9%	8.42%	51.8%	59.4%	–	51.8%	–
CCS(=O)(=O)N1CCN(c2ccc([N+](=O)[O-])c(NCC3CCCO3)c2)CC1 (stereo not shown) [Compound 204]	0.881%	0.157%	20.1%	70.3%	70.8%	10 µM	70.3%	–
O=C(NC(=S)NCCC1=CCCCC1)c1ccc(Br)o1 [Compound 205]	-39.4%	-31.7%	12.1%	50.2%	57.8%	–	50.2%	–
CCCC(=O)Nc1ccccc1NC(=O)c1ccc(OCC)cc1 [Compound 206]	12.1%	15.3%	28.5%	91.2%	91.9%	–	91.2%	–
NS(=O)(=O)c1ccc(NC(=O)c2ccc(CNS(=O)(=O)c3cc(C(F)(F)F)ccc3Cl)cc2)cc1 [Compound 207]	0.545%	0%	25.5%	73.3%	75.5%	10 µM	73.3%	–
COc1ccc(CN2CCNC(=O)C2CC(=O)NCCc2c[nH]c3ccccc23)c(OC)c1 (stereo not shown) [Compound 208]	-7.84%	-10.8%	16.4%	73.4%	74.6%	10 µM	73.4%	–
O=Cc1cn(Cc2ccc(F)cc2Cl)c2ccccc12 [Compound 209]	13%	10.6%	18.6%	139%	142%	–	139%	–
Cc1ccc(-c2nc(C)sc2CC(=O)OCC(=O)Nc2c(F)cccc2F)cc1 [Compound 210]	13.8%	9.43%	20.3%	113%	113%	–	113%	–
CNC(=O)/C(=C\c1cccc(Oc2ccccc2)c1)NC(=O)c1ccccc1 [Compound 211]	0.23%	11.6%	43%	87.9%	110%	–	87.9%	–
O=S(=O)(NCC(c1ccco1)N1CCOCC1)c1ccc(Cl)cc1 (stereo not shown) [Compound 212]	11.1%	7.37%	15.9%	128%	129%	–	128%	–
C=CCc1c(C)nc(-c2ccccc2)nc1N/N=C/c1ccccc1 [Compound 213]	0%	6.49%	41.1%	90.1%	109%	–	90.1%	–
CCc1ccc(Sc2cc(C(=O)NCCN3CCOCC3)c3ccccc3n2)cc1 [Compound 214]	13.2%	16.1%	43.9%	101%	108%	–	101%	–
O=C(Nc1ccc(Oc2cccnc2)cc1)c1ccccc1Cl [Compound 215]	14.2%	15.2%	40.8%	83.3%	87.4%	10 µM	83.3%	–
